According to the supplement of paper PMC10307832:

Columns and labels:
Assay in all cases: relative viability (nuclei count vs DMSO), 5 days (fraction); higher = more cells survive
AZD6482 + Trametinib = compound: Cc1cc([C@@H](C)Nc2ccccc2C(=O)O)c2nc(N3CCOCC3)cc(=O)n2c1 [AZD6482] + CC(=O)Nc1cccc(-n2c(=O)n(C3CC3)c(=O)c3c(Nc4ccc(I)cc4F)n(C)c(=O)c(C)c32)c1 [Trametinib] (partner 0.02 µM)
Method in brief: (§1)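 A single step with final 0.05% Triton X-100, 1% formaldehyde and 1 ug/ml Hoechst fixed the cells and stained nuclei 5 days after treatment. Lung cancer cell lines in 1536-well plates had been treated by pin tool the day after seeding with one drug alone or a fixed anchor-drug dose plus five library-drug doses (not always all listed) in √10 steps, and nuclei were counted on 4× images. Relative viability is the ratio of nuclei in treated wells to nuclei in vehicle wells, taken as the median of duplicate plates.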

[1] = compound: COc1cc2nc(N3CCCN(C)CC3)nc(NC3CCN(Cc4ccccc4)CC3)c2cc1OC + Cc1nc(Nc2ncc(C(=O)Nc3c(C)cccc3Cl)s2)cc(N2CCN(CCO)CC2)n1 [Dasatinib] (partner 0.075 µM)
Method in brief: as §1

[2] = compound: COc1cc2nc(N3CCCN(C)CC3)nc(NC3CCN(Cc4ccccc4)CC3)c2cc1OC + CC(C)C[C@H](NC(=O)[C@H](Cc1ccccc1)NC(=O)c1cnccn1)B(O)O [Bortezomib] (partner 0.002 µM)
Method in brief: as §1

AZD6482 + Foretinib = compound: Cc1cc([C@@H](C)Nc2ccccc2C(=O)O)c2nc(N3CCOCC3)cc(=O)n2c1 [AZD6482] + COc1cc2c(Oc3ccc(NC(=O)C4(C(=O)Nc5ccc(F)cc5)CC4)cc3F)ccnc2cc1OCCCN1CCOCC1 [Foretinib] (partner 0.25 µM)
Method in brief: as §1

Row | Cell Line | relative viability (AZD6482 + Trametinib; first compound 0.08 µM) | relative viability (AZD6482 + Trametinib; first compound 0.253 µM) | relative viability (AZD6482 + Trametinib; first compound 0.8 µM) | relative viability (AZD6482 + Trametinib; first compound 2.53 µM) | relative viability (AZD6482 + Trametinib; first compound 8 µM) | relative viability ([1]; first compound 0.2 µM) | relative viability ([1]; first compound 0.6325 µM) | relative viability ([1]; first compound 2 µM) | relative viability ([1]; first compound 6.325 µM) | relative viability ([2]; first compound 0.2 µM) | relative viability ([2]; first compound 0.6325 µM) | relative viability ([2]; first compound 2 µM) | relative viability ([2]; first compound 6.325 µM) | relative viability (AZD6482 + Foretinib; first compound 0.08 µM) | relative viability (AZD6482 + Foretinib; first compound 0.253 µM) | relative viability (AZD6482 + Foretinib; first compound 0.8 µM) | relative viability (AZD6482 + Foretinib; first compound 2.53 µM) | relative viability (AZD6482 + Foretinib; first compound 8 µM)
1 | ChaGo-K-1 | 0.922 | 0.874 | 0.878 | 0.803 | 0.857 | 0.514 | 0.617 | 0.592 | 0.584 | 0.995 | 1.13 | 1.16 | 0.838 | 0.973 | 0.863 | 0.833 | 0.894 | 0.968
2 | NCI-H1650 | 0.62 | 0.455 | 0.614 | 0.546 | 0.527 | 0.28 | 0.367 | 0.327 | 0.233 | 0.228 | 0.189 | 0.2 | 0.216 | 0.902 | 0.937 | 0.933 | 0.738 | 0.684
3 | NCI-H2009 | 0.181 | 0.163 | 0.21 | 0.139 | 0.185 | 0.308 | 0.324 | 0.493 | 0.296 | 0.94 | 0.833 | 1.08 | 0.965 | 1.12 | 1.24 | 1.24 | 0.83 | 0.747
4 | LOU-NH91 | 0.752 | 0.8 | 0.757 | 0.603 | 0.623 | 0.525 | 0.686 | 0.439 | 0.59 | 0.481 | 0.552 | 0.465 | 0.517 | 0.826 | 0.846 | 0.993 | 0.603 | 0.677
5 | NCI-H2405 | 0.459 | 0.559 | 0.531 | 0.365 | 0.395 | 0.213 | 0.214 | 0.2 | 0.202 | 0.978 | 0.987 | 1.04 | 0.971 | 0.642 | – | 0.968 | 0.608 | 0.57
6 | LCLC-97TM1 | 0.2 | 0.202 | 0.171 | – | 0.154 | 0.857 | 0.701 | 0.877 | 0.915 | 0.439 | 0.939 | 0.697 | 0.517 | 0.854 | 0.778 | 0.823 | 0.595 | 0.596
7 | NCI-H596 | 0.633 | 0.817 | 0.774 | 0.589 | 0.59 | 0.659 | 0.652 | 0.638 | 0.654 | 1.21 | 1.17 | 0.959 | 0.763 | 0.84 | 0.853 | 0.766 | 0.635 | 0.599
8 | NCI-H727 | 0.382 | 0.358 | 0.394 | – | 0.386 | 0.302 | 0.461 | 0.452 | 0.322 | 0.756 | 0.893 | 0.751 | 0.618 | 0.828 | 0.862 | 1.03 | 0.786 | 0.797
9 | H3255 | 0.604 | 0.551 | 0.575 | 0.402 | 0.367 | 0.401 | 0.5 | 0.448 | 0.342 | 0.782 | 0.944 | 0.726 | 0.43 | 1.03 | 0.662 | 0.898 | 0.498 | 0.627
10 | NCI-H1437 | 0.506 | 0.451 | 0.473 | 0.298 | 0.282 | 0.48 | 0.454 | 0.492 | 0.384 | 0.614 | 0.683 | 0.65 | 0.459 | 1.2 | 1.33 | 1.31 | 1.13 | 0.923
11 | LU99A | 0.457 | 0.478 | 0.539 | 0.568 | 0.475 | 0.588 | 0.552 | 0.47 | 0.433 | 1.26 | 1.08 | 1.22 | 1.01 | 0.829 | 0.828 | 0.77 | 0.65 | 0.633
12 | HCC-827 | 0.47 | 0.462 | 0.473 | 0.346 | 0.251 | 0.398 | 0.237 | 0.258 | 0.379 | 0.99 | 1.13 | 0.786 | 1.06 | 0.986 | 0.878 | 0.945 | 0.678 | 0.499
13 | HCC-366 | 0.266 | 0.279 | 0.286 | 0.182 | 0.193 | 0.697 | 0.599 | 0.504 | 0.571 | 1.02 | 1 | 1.03 | 0.927 | 0.938 | 0.897 | 0.936 | 0.759 | 0.447
14 | BEN | 0.898 | 0.947 | 1.02 | 0.866 | 0.817 | 0.384 | 0.389 | 0.36 | 0.351 | 0.781 | 0.952 | 1.09 | 0.883 | 0.675 | 0.62 | 0.701 | 0.558 | 0.739
15 | NCI-H23 | 0.33 | 0.34 | 0.326 | 0.283 | 0.247 | 0.786 | 0.628 | 0.859 | 0.876 | 1 | 0.943 | 1.2 | 0.918 | 0.976 | 0.856 | 0.922 | 0.639 | 0.5
